Experimental data from PMC10302868 (Molecules, 2023).
Converted amounts (≈) assume the structure as drawn. Like-named read-outs stand apart in the source and are kept apart here.

How the values were obtained:
[1] = in vitro; type: in vitro ADME; details: human, plasma, pH 7.4
Experimental: Human plasma (BIOMEX GmbH) was mixed from more than 6 individuals and rat plasma was mixed from more than 10 rats. […] The samples were matched with opposite blank buffer to obtain a final volume of 100 µL with a volume ratio of the matrix: Dialysis Buffer (100 mM sodium phosphate and 150 mM NaCl, pH 7.4) (1:1) in each well. […] The plate was sealed and shaken at 800 rpm for 10 min. Then these T0 samples were stored at 4 °C pending further processing along with other post-dialysis samples. […] The plate was rotated at 100 rpm in a humidified incubator with 5% CO2 at 37 °C for 4 h. At the end of the dialysis, all samples were further processed by protein precipitation for LC-MS/MS analysis. The %bound was calculated using the following equations:%Unbound = 100 × F/T %Bound = 100 − %Unbound
F = Free compound concentration as determined by the calculated concentration on the buffer side of the membrane.
T = Total compound concentration as determined by the calculated concentration on the matrix side of the membrane.

[2] = in vitro; type: in vitro ADME; details: microsomes
Experimental: Microsomes from humans and rats were purchased from Corning (Shanghai, China) and Xenotech (Kansas City, KS, USA), respectively. The working solution of liver microsomes was prepared in 100 mM phosphate buffer at 0.56 mg/mL. The quench solution was cold (4 °C) acetonitrile (ACN) containing 200 ng/mL Verapamil and 200 ng/mL Imipramine as internal standards (IS). An amount of 445 µL of the microsomal working solution was transferred into the pre-warmed plates T120 (incubate time: 120 min) and NCF 120 (no co-factor NADPH regenerating system), then the plates were incubated at 37 °C for 10 min with constant shaking. An amount of 54 µL of the liver microsomes was transferred into a blank plate, and 6 µL NADPH and 180 µL quenching solution were added to the blank plate. The microsomal working solution (0.56 mg/mL) and the compound working solution (100 µM) were mixed 3 times thoroughly and 54 µL was immediately removed for the 0 min point. Then 44 µL NADPH cofactor was added to the incubation plate, and shaken at 37 °C for 120 min. At 15, 30, 60, 90, and 120 min, a 60 µL sample was transferred to the quenching solution and centrifuged at 4000 rpm for 20 min at 4 °C [6]. Then, 80 µL supernatant was transferred to the HPLC water and shaken for 10 min before LC-MS/MS analysis.

[3] = in vitro; type: in vitro ADME; details: hepatocytes
Experimental: Cryopreserved hepatocytes from male SD rats and humans were both purchased from Bioreclamation-IVT. The human cryopreserved hepatocytes were pooled from 10 human donors with a viability of 77.9% tested by trypan blue. The rats’ cryopreserved hepatocytes were pooled from 12 male SD (Sprague Dawley) rats, and the cell viability was 80.9%. The hepatocytes were diluted to 0.5 × 10^6/mL cell suspension with pre-warmed incubation medium ([…]). […] At 15, 30, 60, and 90 min, the samples were mixed and then 25 μL of each sample was transferred at each time point to a well containing 125 μL of ice-cold stop solution (acetonitrile containing 200 ng/mL tolbutamide and labetalol as internal standards) followed by mixing. The samples were vortexed on a plate shaker at 500 rpm for 10 min, and centrifuged at 3220× g for 20 min at 4 °C. The supernatants were transferred to ultra-pure water and analyzed by LC-MS/MS. […] CLint (hep) = k/million cells per mL CLint (liver) = CLint (hep) × liver weight (g/kg body weight) × hepatocellularity

[4] = tested on: S. aureus ATCC 29213 (MSSA); assay: MIC determination; type: cell-based; details: Staphylococcus aureus
[5] = tested on: S. aureus ATCC 700698 (MRSA); assay: MIC determination; type: cell-based; details: Staphylococcus aureus
[6] = tested on: S. aureus SAU-0167 (MRSA); assay: MIC determination; type: cell-based; details: Staphylococcus aureus
[7] = tested on: S. aureus SAU-9922 (MRSA); assay: MIC determination; type: cell-based; details: Staphylococcus aureus
[8] = tested on: S. epidermidis SEP-1024; assay: MIC determination; type: cell-based; details: Staphylococcus epidermidis, SEP1024
[9] = tested on: S. pneumoniae SPN-1169; assay: MIC determination; type: cell-based; details: Streptococcus pneumoniae, SPN1169
[10] = tested on: S. pyogenes SPY-0253; assay: MIC determination; type: cell-based; details: Streptococcus pyogenes, SPY0253
[11] = tested on: E. faecium EFA-0221 (VRE); assay: MIC determination; type: cell-based; details: Enterococcus faecium
[12] = tested on: E. faecalis EFA-1299; assay: MIC determination; type: cell-based; details: Enterococcus faecalis, EFA1299
[13] = tested on: E. faecalis ATCC 29212; assay: MIC determination; type: cell-based; details: Enterococcus faecalis, ATCC29212
[14] = tested on: H. influenzae ATCC 49247; assay: MIC determination; type: cell-based; details: Haemophilus influenzae, ATCC49247
[15] = tested on: A. baumannii ATCC 17978; assay: MIC determination; type: cell-based; details: Acinetobacter baumannii, ATCC17978
[16] = tested on: A. baumannii ATCC BAA-1605; assay: MIC determination; type: cell-based; details: Acinetobacter baumannii, ATCCBAA1605
[17] = tested on: K. pneumoniae ATCC BAA-1705; assay: MIC determination; type: cell-based; details: Klebsiella pneumoniae, ATCCBAA1705
[18] = tested on: P. aeruginosa ATCC 27853; assay: MIC determination; type: cell-based; details: Pseudomonas aeruginosa, ATCC27853
[19] = tested on: E. coli ATCC 25922; assay: MIC determination; type: cell-based; details: Escherichia coli, ATCC25922
[20] = tested on: S. maltophilia STM-0001; assay: MIC determination; type: cell-based; details: Stenotrophomonas maltophilia, STM0001
[21] = tested on: M. tuberculosis H37Rv ATCC27294; assay: MIC determination (Microplate Alamar Blue Assay); type: cell-based, Mycobacterium tuberculosis; details: M. tuberculosis H37Rv ATCC27294, 7 days
[22] = tested on: M. bovis BCG (Pasteur 1173P2); assay: microbe, parasite or virus in culture; type: cell-based; details: Mycobacterium tuberculosis variant bovis BCG, 168 h
[23] = tested on: M. smegmatis mc^2155; assay: MIC determination (Microplate Alamar Blue Assay); type: cell-based; details: Mycolicibacterium smegmatis; M. smegmatis mc^2155, 72 h
[24] = tested on: M. abscessus-GDI; assay: MIC determination (Microplate Alamar Blue Assay); type: cell-based, Mycobacterium abscessus; details: Mycobacteroides abscessus, 72 h
[25] = tested on: M. abscessus-C16; assay: MIC determination (Microplate Alamar Blue Assay); type: cell-based, Mycobacterium abscessus; details: Mycobacteroides abscessus; M. abscessus-C16, 72 h
[26] = tested on: M. abscessus-C28; assay: MIC determination (Microplate Alamar Blue Assay); type: cell-based, Mycobacterium abscessus; details: Mycobacteroides abscessus, 72 h
[27] = tested on: M. abscessus-C58; assay: MIC determination (Microplate Alamar Blue Assay); type: cell-based, Mycobacterium abscessus; details: Mycobacteroides abscessus; M. abscessus-C58, 72 h
[28] = human
[29] = male, Sprague-Dawley, rat, in vivo, iv, 3 mg/kg
[30] = allometric scaling from rat volume of distribution
[31] = tested on: Wolbachia-infected LDW1 cells (wMel); details: cited from earlier work
[32] = tested on: Wolbachia-infected C6/36 cells (wAlb); details: cited from earlier work
[33] = in vivo; details: male, Sprague-Dawley, rat
[34] = physchem
[35] = in vitro; details: African green monkey
[36] = tested on: MDR1-MDCK; details: cited from earlier work
[37] = Pharmacokinetics in rats; details: Rat
[38] = Mycobacterium tuberculosis, 168 h, read-out: MIC

Compound: C=C[C@]1(C)C[C@@H](OC(=O)COc2ccc3c(c2F)B(O)OC3)[C@]2(C)[C@H](C)CC[C@]3(CCC(=O)[C@H]32)[C@@H](C)[C@@H]1O [AN11251]
- fraction unbound at 4 h, 2 µM [1]: 0.024
- CLint scaled ([2]; human): 300 mL/min/kg
- CLint scaled ([2]; rat): 333 mL/min/kg
- CLint scaled at 20 µg/mL ([3]; human): 180 mL/min/kg
- hepatocyte CLint at 20 µg/mL ([3]; human): 64.8 µL/min/1e6 cells
- CLint scaled at 20 µg/mL ([3]; male, Sprague-Dawley, rat): 876 mL/min/kg
- MIC [4]: < 0.039 µg/mL
- MIC [5]: < 0.039 µg/mL
- MIC [6]: 0.063 µg/mL (≈ 0.119 µM)
- MIC [7]: 0.063 µg/mL (≈ 0.119 µM)
- MIC [8]: 0.063 µg/mL (≈ 0.119 µM)
- MIC [9]: 0.5 µg/mL (≈ 0.946 µM)
- MIC [10]: 0.063 µg/mL (≈ 0.119 µM)
- MIC [11]: 0.125 µg/mL (≈ 0.237 µM)
- MIC [12]: 4 µg/mL (≈ 7.57 µM)
- MIC [13]: 5 µg/mL (≈ 9.46 µM)
- MIC [14]: 2 µg/mL (≈ 3.78 µM)
- MIC [15]: 20 µg/mL (≈ 37.8 µM)
- MIC [16]: 32 µg/mL (≈ 60.6 µM)
- MIC [17]: > 32 µg/mL
- MIC [18]: > 32 µg/mL
- MIC [19]: > 32 µg/mL
- MIC [20]: > 32 µg/mL
- MIC [21]: 0.952 µg/mL (≈ 1.8 µM)
- MIC [21, 38]: 0.925 µg/mL (≈ 1.75 µM)
- MIC [22]: 2.5 µg/mL (≈ 4.73 µM)
- MIC [23]: > 20 µg/mL
- MIC [24]: > 20 µg/mL
- MIC [25]: > 20 µg/mL
- MIC [26]: > 20 µg/mL
- MIC [27]: > 20 µg/mL
- half-life [28]: 252 min
- MRT [29]: 1.04 h
- predicted human volume of distribution [30]: 1.029 L/kg
- EC50 [31]: 0.792 ng/mL (≈ 0.0015 µM)
- EC50 [32]: 7.92 ng/mL (≈ 0.015 µM)
- bioavailability [33]: 19.2%
- Tmax ([33]; iv, 3 mg/kg): 0 h
- Vd ([33]; iv, 3 mg/kg): 1.44 L/kg
- clearance ([33]; iv, 3 mg/kg): 19.8 mL/min/kg
- half-life ([33]; iv, 3 mg/kg): 105 min
- MRT ([33]; iv, 3 mg/kg): 1.22 h
- half-life ([33]; po, 10 mg/kg): 143 min
- MRT ([33]; po, 10 mg/kg): 2.26 h
- logP [34]: 4.5
- CC50 [35]: 27 µg/mL (≈ 51.1 µM)
- apparent permeability (Papp) [36]: 1.41e-05 cm/s
- time until eliminated (plasma concentration-time curve) [37]: ≤ 8 h

Compound: NCC[C@H](O)C(=O)N[C@@H]1C[C@H](N)[C@@H](O[C@H]2O[C@H](CN)[C@@H](O)[C@H](O)[C@H]2O)[C@H](O)[C@H]1O[C@H]1O[C@H](CO)[C@@H](O)[C@H](N)[C@H]1O [Amikacin]
- MIC [4]: 8 µg/mL (≈ 13.7 µM)
- MIC [5]: > 32 µg/mL
- MIC [6]: > 32 µg/mL
- MIC [7]: 2 µg/mL (≈ 3.42 µM)
- MIC [8]: ≤ 1 µg/mL
- MIC [9]: > 32 µg/mL
- MIC [10]: 32 µg/mL (≈ 54.6 µM)
- MIC [11]: > 32 µg/mL
- MIC [12]: > 32 µg/mL
- MIC [13]: > 32 µg/mL
- MIC [15]: 2 µg/mL (≈ 3.42 µM)
- MIC [17]: > 32 µg/mL
- MIC [18]: 8 µg/mL (≈ 13.7 µM)
- MIC [19]: 8 µg/mL (≈ 13.7 µM)
- MIC [20]: > 32 µg/mL
- MIC [24]: 6.38 µg/mL (≈ 10.9 µM)
- MIC [25]: 12.7 µg/mL (≈ 21.7 µM)
- MIC [26]: 14.5 µg/mL (≈ 24.7 µM)
- MIC [27]: 12.8 µg/mL (≈ 21.9 µM)

Compound: O=C(O)c1cn(C2CC2)c2cc(N3CCNCC3)c(F)cc2c1=O [Ciproflox, Ciprofloxacin]
- MIC [6]: > 32 µg/mL
- MIC [7]: > 32 µg/mL
- MIC [8]: 0.25 µg/mL (≈ 0.754 µM)
- MIC [9]: 1 µg/mL (≈ 3.02 µM)
- MIC [10]: 0.25 µg/mL (≈ 0.754 µM)
- MIC [11]: > 32 µg/mL
- MIC [12]: 0.25 µg/mL (≈ 0.754 µM)
- MIC [14]: ≤ 0.031 µg/mL
- MIC [16]: > 32 µg/mL
- MIC [20]: 2 µg/mL (≈ 6.04 µM)

Compound: CO[C@H]1/C=C/O[C@@]2(C)Oc3c(C)c(O)c4c(O)c(c(/C=N/N5CCN(C)CC5)c(O)c4c3C2=O)NC(=O)/C(C)=C\C=C\[C@H](C)[C@H](O)[C@@H](C)[C@@H](O)[C@@H](C)[C@H](OC(C)=O)[C@@H]1C [Rifampicin]
- MIC [4]: 0.0063 µg/mL (≈ 0.00766 µM)
- MIC [5]: ≤ 0.031 µg/mL
- MIC [6]: ≤ 0.031 µg/mL
- MIC [7]: ≤ 0.031 µg/mL
- MIC [8]: ≤ 0.031 µg/mL
- MIC [9]: ≤ 0.031 µg/mL
- MIC [10]: 0.063 µg/mL (≈ 0.0766 µM)
- MIC [11]: 4 µg/mL (≈ 4.86 µM)
- MIC [12]: 1 µg/mL (≈ 1.22 µM)
- MIC [13]: 2 µg/mL (≈ 2.43 µM)
- MIC [14]: 0.25 µg/mL (≈ 0.304 µM)
- MIC [15]: 2 µg/mL (≈ 2.43 µM)
- MIC [16]: 4 µg/mL (≈ 4.86 µM)
- MIC [17]: > 32 µg/mL
- MIC [18]: > 32 µg/mL
- MIC [19]: 8 µg/mL (≈ 9.72 µM)
- MIC [20]: 16 µg/mL (≈ 19.4 µM)
- MIC [21, 38]: 0.031 µg/mL (≈ 0.0377 µM)
- MIC [22]: ≤ 0.031 µg/mL
- MIC [23]: 13.3 µg/mL (≈ 16.1 µM)
- MIC [24]: > 20 µg/mL
- MIC [25]: > 20 µg/mL
- MIC [26]: > 20 µg/mL
- MIC [27]: > 20 µg/mL
